From US8314148B2, “Selective hydroxamate based MMP inhibitors” (Novartis AG, priority 2006, dated 2012)
pIC50: −log10 of the molar value.

Key:
MMP02 = molecular target: T1, MMP02 (Homo sapiens, UniProt P08253); experiment: MMP assay, determination of IC50 (fluorescence); format: biochemical; conditions: human MMP 0.5 nM, substrate 5 μM, 1 hour preincubation, pH 7.5
T1 sequence (P08253 110-660): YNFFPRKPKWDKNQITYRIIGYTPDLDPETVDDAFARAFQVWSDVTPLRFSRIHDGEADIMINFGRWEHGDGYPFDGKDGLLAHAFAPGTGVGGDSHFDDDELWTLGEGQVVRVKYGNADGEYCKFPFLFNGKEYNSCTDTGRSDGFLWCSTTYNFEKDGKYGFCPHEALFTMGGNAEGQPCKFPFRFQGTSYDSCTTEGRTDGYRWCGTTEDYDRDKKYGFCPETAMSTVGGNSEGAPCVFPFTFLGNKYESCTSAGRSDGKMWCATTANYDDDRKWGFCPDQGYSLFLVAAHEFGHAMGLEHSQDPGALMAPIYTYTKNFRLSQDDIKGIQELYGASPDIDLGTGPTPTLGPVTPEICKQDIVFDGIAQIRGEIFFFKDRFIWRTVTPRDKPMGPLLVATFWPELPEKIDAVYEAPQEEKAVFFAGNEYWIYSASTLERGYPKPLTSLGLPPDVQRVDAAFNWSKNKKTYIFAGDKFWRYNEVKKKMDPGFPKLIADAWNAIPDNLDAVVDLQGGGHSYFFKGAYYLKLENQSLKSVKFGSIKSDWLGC
Description: (§1) The activities of a compound according to the present invention can be assessed by the following methods well-described in the art. Determination of IC50 values in MMP assays
(§2) Dose-response curves are prepared in DMSO/water solution (90/10, v/v) in 96-well plate format and stored at 4° C. up to 24 hours prior to analysis. In all steps poly-propylene pipette tips are changed avoiding cross-contamination or compound carry over. On the day of the assay, each compound is further diluted (1/33.33; 96-well plate format) in water containing 0.05% CHAPS to 3-times the desired assay concentration. In the assay for each compound, 11 concentrations ranging from 30 to 0.0003 μM are investigated (0.0003, 0.001, 0.003, 0.01, 0.03, 0.1, 0.3, 1, 3, 10, 30 μM). A three-fold concentrated MMP solution is prepared in two-fold concentrated assay buffer 100 mM Tris-HCl buffer, pH 7.5 containing 100 mM NaCl, 10 mM CaCl2, 10 μM ZnCl2, 0.05% Brij-35 and dispensed in 96-well Greiner plates. Similarly a three-fold concentrated substrate solution (15 μM) is prepared in 100 mM Tris-HCl buffer, pH 7.5 containing 100 mM NaCl, 10 mM CaCl2, 10 μM ZnCl2, 0.05% Brij-35 and dispensed in 96-well Greiner plates. Transfer of compounds, substrate and enzyme from 96-well plates to 384-well plates is made using either Cybi™well or Cybi™disk devices.
(§3) The assay procedure is the following, in each well, 10 μL water/CHAPS (±test compound) is added, followed by 10 μL human MMP solution (final assay concentration 0.5 nM). After 1 hour of incubation at room temperature the assay is started by addition of 10 μL substrate solution (final concentration 5 μM).
(§4) The reaction is allowed to proceed for 1 hours at ambient temperature (˜20-22° C.). At the end of the incubation the fluorescence is measured as described above.
(§5) The apparent inhibition constant, IC50, is determined from the plot of percentage of inhibition vs. inhibitor concentration using non-linear regression analysis software (XLfit, Vers. 3.0.5; ID Business Solution Ltd., Guildford, Surrey, UK).

MMP09 = MMP09 (Homo sapiens, UniProt P14780); experiment: MMP assay, determination of IC50 (fluorescence); format: biochemical; conditions: human MMP 0.5 nM, substrate 5 μM, 1 hour preincubation, pH 7.5
MMP09, sequence (P14780 94-707): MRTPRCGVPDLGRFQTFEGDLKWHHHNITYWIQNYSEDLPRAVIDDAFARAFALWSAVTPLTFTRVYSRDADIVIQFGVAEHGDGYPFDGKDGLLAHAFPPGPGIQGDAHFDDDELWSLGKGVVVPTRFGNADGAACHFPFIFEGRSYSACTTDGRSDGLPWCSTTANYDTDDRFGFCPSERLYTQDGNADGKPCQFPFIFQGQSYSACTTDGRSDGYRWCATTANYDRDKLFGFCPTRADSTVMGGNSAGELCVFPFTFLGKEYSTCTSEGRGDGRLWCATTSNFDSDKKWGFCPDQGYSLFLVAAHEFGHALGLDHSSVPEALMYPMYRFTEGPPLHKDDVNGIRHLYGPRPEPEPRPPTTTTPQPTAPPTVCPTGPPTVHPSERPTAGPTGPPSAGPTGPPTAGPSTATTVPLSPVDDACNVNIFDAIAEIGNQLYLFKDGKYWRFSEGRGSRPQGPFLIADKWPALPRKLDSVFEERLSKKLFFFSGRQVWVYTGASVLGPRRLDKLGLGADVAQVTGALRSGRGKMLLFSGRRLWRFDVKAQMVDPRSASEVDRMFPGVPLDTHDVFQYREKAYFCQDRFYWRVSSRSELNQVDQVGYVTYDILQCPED
Description: as §1, §2, §3, §4, §5

MMP12 = MMP12 (Homo sapiens, UniProt P39900); experiment: MMP assay, determination of IC50 (fluorescence); format: biochemical; conditions: human MMP 0.5 nM, substrate 5 μM, 1 hour preincubation, pH 7.5
MMP12, sequence (P39900 106-470): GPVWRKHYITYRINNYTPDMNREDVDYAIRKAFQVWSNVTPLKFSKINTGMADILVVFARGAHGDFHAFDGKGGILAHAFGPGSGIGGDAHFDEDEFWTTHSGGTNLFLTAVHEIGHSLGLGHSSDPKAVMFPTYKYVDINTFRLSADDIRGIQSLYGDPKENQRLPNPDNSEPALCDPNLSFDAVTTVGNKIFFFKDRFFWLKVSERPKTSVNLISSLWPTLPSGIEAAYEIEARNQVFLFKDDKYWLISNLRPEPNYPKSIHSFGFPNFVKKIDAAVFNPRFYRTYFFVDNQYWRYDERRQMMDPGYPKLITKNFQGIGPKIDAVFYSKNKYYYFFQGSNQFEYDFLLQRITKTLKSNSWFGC
Description: as §1, §2, §3, §4, §5

MMP13 = MMP13 (Homo sapiens, UniProt P45452); experiment: MMP assay, determination of IC50 (fluorescence); format: biochemical; conditions: human MMP 0.5 nM, substrate 5 μM, 1 hour preincubation, pH 7.5
Description: as §1, §2, §3, §4, §5

SMILES | melting point [°C] | pIC50 (MMP02) | pIC50 (MMP09) | pIC50 (MMP12) | pIC50 (MMP13)
COc1cccc(S(=O)(=O)N(CCC(C)C)[C@@H](C(=O)NO)C(C)(C)C)c1 [Example 1, N-isoamyl-N-(3 Methoxyphenylsulfonyl)D-tert-leucine hydroxamic acid] | 115.5 to 116.5 | – | – | – | –
CC(C)CCN([C@@H](C(=O)NO)C(C)(C)C)S(=O)(=O)c1cccc(Cl)c1 [Example 2-4] | – | 5.77 | 6.14 | 7.76 | 7.02
COc1cccc(S(=O)(=O)N(CC(C)C)[C@@H](C(=O)NO)C(C)(C)C)c1 [Example 2-6] | – | 4.95 | 5.82 | 7.76 | 6.60
CCc1cccc(S(=O)(=O)N(CCC(C)C)[C@@H](C(=O)NO)C(C)(C)C)c1 [Example 2-7] | – | 4.86 | 5.11 | 6.65 | 6.30
CC(=O)Nc1cccc(S(=O)(=O)N(CCC(C)C)[C@@H](C(=O)NO)C(C)(C)C)c1 [Example 2-13] | – | 4.99 | 4.76 | 7.46 | 5.94
CCOc1cccc(S(=O)(=O)N(CCC(C)C)[C@@H](C(=O)NO)C(C)C)c1 [Example 2-17] | – | 4.55 | 4.90 | 6.65 | 5.61
COc1cccc(S(=O)(=O)N(Cc2ccccc2)[C@@H](C(=O)NO)C(C)(C)C)c1 [Example 2-23] | – | 4.90 | 5.46 | 6.84 | 6.10
COC(=O)CN([C@@H](C(=O)NO)C(C)(C)C)S(=O)(=O)c1cccc(OC)c1 [Example 2-26] | – | 5.06 | 5.43 | 7.26 | 6.07
COc1cccc(S(=O)(=O)N(CC(=O)N(C)C)[C@@H](C(=O)NO)C(C)(C)C)c1 [Example 2-27] | – | ≤ 4.40 | 4.64 | 6.52 | 5.31
CC(C)CCN([C@@H](C(=O)NO)C(C)(C)C)S(=O)(=O)c1cccc(N)c1 [Example 2-28] | – | 5.50 | 5.51 | 7.30 | 5.81
CC(C)CCN([C@@H](C(=O)NO)C(C)(C)C)S(=O)(=O)c1cccc(NC(=O)NC(C)C)c1 [Example 2-34] | – | 5.43 | 5.16 | 7.19 | 5.92
CCCN([C@@H](C(=O)NO)C(C)(C)C)S(=O)(=O)c1cccc(C(=O)NC)c1 [Example 2-38] | – | < 4.52 | < 4.52 | 6.19 | 4.59
CCCN([C@@H](C(=O)NO)C(C)(C)C)S(=O)(=O)c1cccc(C(=O)OC)c1 [Example 2-39] | – | < 4.52 | < 4.52 | 6.40 | 5.18
CCNC(=O)Nc1cccc(S(=O)(=O)N(CCCN2CCCCC2)[C@@H](C(=O)NO)C(C)(C)C)c1 [Example 4-4] | – | 5.87 | 6.05 | 8.82 | 7.30
COc1cccc(S(=O)(=O)N(CCCc2cccnc2)[C@@H](C(=O)NO)C(C)(C)C)c1 [Example 5] | – | 5.11 | 6.40 | 8.26 | 7.15
COc1cccc(S(=O)(=O)N(CCO)[C@@H](C(=O)NO)C(C)(C)C)c1 [Example 6] | – | 5.52 | 6.52 | 8.70 | 7.52
